From patent publication US20230089368A1, “POLYAROMATIC UREA DERIVATIVES AND THEIR USE IN THE TREATMENT OF MUSCLE DISEASES” (ANAGENESIS BIOTECHNOLOGIES S.A.S., priority 2019, published 2023)

Tests used:
[1] = test system: muscle progenitors (hMP) from DMD hiPSC or WT hiPSC; test: Myotube assay: myogenic activity (total myotube area per well); type: cell-based, human; settings: Homo sapiens, 72 h; myotube assay, compounds incubated 3 days; read-out: MA (normalized Myotube Area, efficacy)
How it was run: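 DMD or WT hiPSC-derived muscle progenitors plated on collagen I in K5 medium with 5 μM Y-27632, treated with compound (1.5 nM–30 μM) for 3 days at 37° C. Cells were fixed, stained for alpha-actinin and imaged for total myotube area per well. EC50 and normalized myotube area (MA) taken from duplicate-averaged data.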

[2] = test system: satellite-like cells (Pax7-positive cells) in hMP; test: Myotube assay: Pax7-positive (satellite-like) cell quantification; type: cell-based, human; set-up: key to Pax7% (pool of Pax7-positive cells) / Pax7: −: Depletes the pool of cells, while positively affects the myotubes; +: Maintains or increases the pool of cells, with at least 1 of the highest concentration known to be cytotoxic; ++: Maintains or increases the pool of cells, without any toxicity; settings: myotube assay, compounds incubated 3 days
How it was run: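 DMD hiPSC-derived muscle progenitors (hMP) proliferated 4 days, then plated on collagen I in K5 medium with 5 μM Y-27632. Compound added at 1.5 nM–30 μM for 3 days at 37° C, then cells fixed and immunostained. Pax7-positive cells counted as percentage of total nuclei, duplicates averaged.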

Row | SMILES | Emax [1] | Pax7% (pool of Pax7-positive cells) [2]
1 | CC(C)(C)c1cc(NC(=O)Nc2ccc(Oc3ccnc4[nH]c(=O)cnc34)cc2F)n(CCN2CCOCC2)n1 [(k), 1-(3-(tert-butyl)-1-(2-morpholinoethyl)-1H-pyrazol-5-yl)-3-(2-fluoro-4-((3-oxo-3,4-dihydropyrido[2,3-b]pyrazin-8-yl)oxy)phenyl)urea] | 50 to 75% | ++
2 | CC(C)(C)c1cc(NC(=O)Nc2ccc(Oc3ccnc4[nH]c(=O)cnc34)cc2F)n(-c2cccnc2)n1 [(l), 1-(3-(tert-butyl)-1-(pyridin-3-yl)-1H-pyrazol-5-yl)-3-(2-fluoro-4-((3-oxo-3,4-dihydropyrido[2,3-b]pyrazin-8-yl)oxy)phenyl)urea] | 50 to 75% | +
3 | CC(C)(C)c1cc(NC(=O)Nc2ccc(Oc3ccnc4[nH]c(=O)cnc34)cc2F)n(-c2ncccn2)n1 [(m), 1-(3-(tert-butyl)-1-(pyrimidin-2-yl)-1H-pyrazol-5-yl)-3-(2-fluoro-4-((3-oxo-3,4-dihydropyrido[2,3-b]pyrazin-8-yl)oxy)phenyl)urea] | 50 to 75% | ++
4 | CC(C)(C)c1cc(NC(=O)Nc2ccc(Oc3ccnc4[nH]c(=O)cnc34)cc2F)n(-c2ccc3ncccc3c2)n1 [(n), 1-(3-(tert-butyl)-1-(quinolin-6-yl)-1H-pyrazol-5-yl)-3-(2-fluoro-4-((3-oxo-3,4-dihydropyrido[2,3-b]pyrazin-8-yl)oxy)phenyl)urea] | ≥ 75% | +
5 | CC(=O)n1nc(C(C)(C)C)cc1NC(=O)Nc1ccc(Oc2ccnc3[nH]c(=O)cnc23)cc1F [(o), 1-(1-acetyl-3-(tert-butyl)-1H-pyrazol-5-yl)-3-(2-fluoro-4-((3-oxo-3,4-dihydropyrido[2,3-b]pyrazin-8-yl)oxy)phenyl)urea] | 25 to 50% | ++
6 | CC(C)(C)c1nc(NC(=O)Nc2ccc(Oc3ccnc4[nH]c(=O)cnc34)cc2F)n(-c2ccccc2)n1 [(p), 1-(3-(tert-butyl)-1-phenyl-1H-1,2,4-triazol-5-yl)-3-(2-fluoro-4-((3-oxo-3,4-dihydropyrido[2,3-b]pyrazin-8-yl)oxy)phenyl)urea] | 25 to 50% | ++
7 | CC(C)(C)c1cc(NC(=O)Nc2ccc(Oc3ccnc4[nH]c(=O)cnc34)cc2F)sn1 [(q), 1-(3-(tert-butyl)isothiazol-5-yl)-3-(2-fluoro-4-((3-oxo-3,4-dihydropyrido[2,3-b]pyrazin-8-yl)oxy)phenyl)urea] | 50 to 75% | ++
8 | CC(C)(C)c1nnc(NC(=O)Nc2ccc(Oc3ccnc4[nH]c(=O)cnc34)cc2F)s1 [(r), 1-(5-(tert-butyl)-1,3,4-thiadiazol-2-yl)-3-(2-fluoro-4-((3-oxo-3,4-dihydropyrido[2,3-b]pyrazin-8-yl)oxy)phenyl)urea] | ≥ 75% | ++
9 | CC(C)(C)c1cc(NC(=O)Nc2ccc(Oc3ccnc4[nH]c(=O)cnc34)cc2)n(-c2ccccc2)n1 [(s), 1-(3-(tert-butyl)-1-phenyl-1H-pyrazol-5-yl)-3-(4-((3-oxo-3,4-dihydropyrido[2,3-b]pyrazin-8-yl)oxy)phenyl)urea] | 50 to 75% | +
10 | CC(C)(C)c1cc(NC(=O)Nc2ccc(Oc3ccnc4[nH]c(=O)cnc34)nc2)n(-c2ccccc2)n1 [(t), 1-(3-(tert-butyl)-1-phenyl-1H-pyrazol-5-yl)-3-(6-((3-oxo-3,4-dihydropyrido[2,3-b]pyrazin-8-yl)oxy)pyridin-3-yl)urea] | 25 to 50% | +
11 | CC(C)(C)c1cc(NC(=O)Nc2ccc(Oc3ccnc4[nH]c(=O)cnc34)cn2)n(-c2ccccc2)n1 [(u), 1-(3-(tert-butyl)-1-phenyl-1H-pyrazol-5-yl)-3-(5-((3-oxo-3,4-dihydropyrido[2,3-b]pyrazin-8-yl)oxy)pyridin-2-yl)urea] | 25 to 50% | ++
